Experimental data reported in the NIST ThermoML archive (doi:10.1016/j.fluid.2005.03.030).
± gives the expanded uncertainty stated by the source.

Test: xn = mol fraction of the nth substance listed
Details: Liquid, Falling body viscometer

COCCOCCOCCOCCOC [2,5,8,11,14-pentaoxapentadecane] + FCC(F)(F)F
viscosity [mPa·s]
Details	10000 kPa	20000 kPa	30000 kPa	40000 kPa	50000 kPa	60000 kPa	70000 kPa	80000 kPa	90000 kPa	100000 kPa
333.15 K, x2 = 0.2769	–	–	–	–	–	2.086 ± 0.029	2.236 ± 0.031	2.391 ± 0.034	2.549 ± 0.036	2.712 ± 0.039
333.15 K, x2 = 0.4433	–	–	–	–	–	1.624 ± 0.022	1.741 ± 0.023	1.861 ± 0.025	1.984 ± 0.027	2.111 ± 0.029
333.15 K, x2 = 0.6333	–	–	–	–	–	1.173 ± 0.015	1.26 ± 0.016	1.349 ± 0.017	1.438 ± 0.019	1.529 ± 0.02
333.15 K, x2 = 0.8797	–	–	–	–	–	0.522 ± 0.006	0.561 ± 0.006	0.6 ± 0.007	0.64 ± 0.007	0.681 ± 0.008
353.15 K, x2 = 0.2769	1.038 ± 0.013	1.133 ± 0.015	1.229 ± 0.016	1.328 ± 0.017	1.431 ± 0.018	1.539 ± 0.02	1.653 ± 0.021	1.773 ± 0.022	1.9 ± 0.024	2.035 ± 0.026
353.15 K, x2 = 0.4433	0.834 ± 0.01	0.908 ± 0.011	0.984 ± 0.012	1.064 ± 0.013	1.147 ± 0.014	1.233 ± 0.015	1.323 ± 0.016	1.415 ± 0.017	1.51 ± 0.019	1.609 ± 0.02
353.15 K, x2 = 0.6333	0.609 ± 0.007	0.665 ± 0.008	0.725 ± 0.009	0.788 ± 0.009	0.854 ± 0.01	0.921 ± 0.011	0.99 ± 0.012	1.061 ± 0.013	1.132 ± 0.013	1.205 ± 0.014
353.15 K, x2 = 0.8797	0.256 ± 0.003	0.299 ± 0.004	0.336 ± 0.004	0.37 ± 0.004	0.404 ± 0.005	0.436 ± 0.005	0.469 ± 0.005	0.501 ± 0.006	0.533 ± 0.006	0.565 ± 0.006
373.15 K, x2 = 0.2769	0.832 ± 0.01	0.907 ± 0.011	0.986 ± 0.012	1.069 ± 0.013	1.156 ± 0.014	1.247 ± 0.015	1.342 ± 0.016	1.441 ± 0.018	1.545 ± 0.019	1.654 ± 0.02
373.15 K, x2 = 0.4433	0.662 ± 0.008	0.72 ± 0.009	0.783 ± 0.01	0.85 ± 0.01	0.921 ± 0.011	0.994 ± 0.012	1.069 ± 0.013	1.147 ± 0.014	1.226 ± 0.015	1.307 ± 0.016
373.15 K, x2 = 0.6333	0.471 ± 0.006	0.524 ± 0.007	0.577 ± 0.007	0.631 ± 0.008	0.685 ± 0.008	0.739 ± 0.009	0.794 ± 0.01	0.849 ± 0.01	0.904 ± 0.011	0.96 ± 0.012
373.15 K, x2 = 0.8797	0.195 ± 0.003	0.234 ± 0.003	0.268 ± 0.003	0.3 ± 0.004	0.33 ± 0.004	0.36 ± 0.004	0.39 ± 0.005	0.419 ± 0.005	0.448 ± 0.005	0.478 ± 0.005
